Test results as given in patent US12233060B2, “Inhibitors of Ataxia-Telangiectasia Mutated and Rad3-related protein kinase (ATR) for use in methods of treating cancer” (THE INSTITUTE OF CANCER RESEARCH: ROYAL CANCER HOSPITAL, priority 2016, dated 2025).

Tests used:
[1] = tested on: Arid1a+/+ and Arid1a−/− mouse embryonic stem (ES) cells; experiment: Clonogenic survival of mouse Arid1a isogenic ES cells; assay type: cell-based; settings: p<0.001 ANOVA
Protocol: FIG. 2. In vitro ARID1A/ATR synthetic lethality. A. Chemical structure of VX-970. B. Western blot of ARID1A in human ARID1A isogenic HCT116 cells. C. Image of colonies in 6 well-plate clonogenic assay. HCT116 ARID1A isogenic (^+/+ and ^−/−) cell lines were exposed to increasing concentrations of the VE-821 (0, 0.1, 1 uM) and VX-970 (0, 0.01, 0.05 uM) for 14 days. D and E. Dose response clonogenic survival curve of HCT116 ARID1A isogenic (^+/+ and ^−/−) cell lines exposed to increasing concentrations of the VE-821 and VX-970 for 14 days. Error bars represent SD from triplicate experiments, ANOVA p-value of <0.0001. F. Area under curve (AUC) box whisker comparison plot for human tumor cell lines exposed to VX-970 for five days. ARID1A wild type tumor cell lines (n=15) were compared to ARID1A mutant cell lines (n=9). Student's t-test p=0.00594. G. Dose response clonogenic survival curve of mouse Arid1a isogenic ES cell lines. Experiment was performed as per (C). Error bars represent SD from triplicate experiments, ANOVA p value of <0.0001. H. Western blot of Arid1a protein expression in mouse ES Arid1a isogenic cells. […]
Short-term survival assays were performed in 384-well plates. […] Drug was added 24 h after seeding and cells were continuously exposed to the drug for five days, after which cell viability was estimated using CellTitre-Glo luminescence (Promega). […] Colonies were counted manually. […]

[2] = tested on: HCT116 ARID1A+/+ and ARID1A−/− cells; experiment: Mitotic spreads, chromosomal aberrations; assay type: cell-based, human; settings: VX-970 1 uM; p=0.0007 Student's t-test
Protocol: FIG. 5. ATRi effect on cell cycle progression, chromosomal instability, DNA damage and apoptosis. A. Barchart illustrating G2/M fraction in HCT116 ARID1A^+/+ and ARID1A^−/− cells synchronized in G1/early S phase by double thymidine block and released into fresh media containing DMSO or VX-970 (500 nM). The percentage of cells in G2/M was measured by FACS following PI staining. […] Cells were stained with DAPI. A minimum of 50 anaphases were scored in 3 biological replicate experiments. *p=0.023, Student's t-test. C. Bar chart illustrating frequency of anaphase bridges in TOV21G cells exposed to VX-970 (0.5 uM) or DMSO for 8 hours prior to fixation. Experiment performed as for (B). p=0.006 Student's t-test. D. Mitotic spread images from HCT116 ARID1A^+/+ and ARID1A^−/− cells following exposure to either DMSO or VX-970 (1 uM). Scale bar represents 20 um. E. Bar chart illustrating extent of chromosomal abnormalities in HCT116 ARID1A^+/+ and ARID1A^−/− cells exposed to VX-970 (1 uM). *p<0.05, Student's t-test. F. Western blot illustrating γH2AX in HCT116 ARID1A^+/+ and ARID1A^−/− cells exposed to VX-970 (0.5 uM) for the indicated time prior to cell lyses. G. Bar chart illustrating apoptotic fraction in cells exposed to increasing concentrations of VX-970 for 24 hours. Experiment as per FIG. 3I. H. Western blot illustrating PARP cleavage in HCT116 ARID1A^+/+ and ARID1A^−/− cells exposed to VX-970. […]

HCC1143 and HeLa cells = experiment: Surviving fraction after five days VX-970 with SMARCA4 or ARID1A siRNA; assay type: cell-based, human; settings: five days exposure
Protocol: FIG. 6. BAF complex deficiency causes sensitivity to ATR inhibition. A. Schematic of BAF complex composition in human cells. B. VX-970 dose response curves from HCT116 cells transfected with siRNA targeting ARID1B or SMARCA4. 48 hours after transfection cells were exposed to VX-970 for 5 days. Error bars represent SD from triplicate experiments. p<0.0001, ANOVA for siARID1B and siSMARCA4 vs. siCON. C. Western blots illustrating ARID1B and SMARCA4 silencing in experiment (B). D. VX-970 dose response curves from four OCCC cell lines, 3 SMARCA4 wildtype (blue; RMG1, KK and ES2) and 1 SMARCA4 mutant (red; TOV112D). E. Bar chart illustrating surviving fraction after five days VX-970 exposure in HCC1143 and He1a cells transfected with siRNA targeting either SMARCA4 or ARID1A *p<0.05 by Student's t-test compared to siCon. F. Western blot illustrating level of chromatin bound TOP2A in HCT116 cells transfected siRNA targeting ARID1A, ARID1B or SMARCA4. Cells were analysed 48 hours after transfection. G. A model for the proposed mechanism driving the sensitivity of ARID1A-deficient cells to ATRi. Loss of function genomic alterations to ARID1A (or ARID1B/SMARCA4) lead to dysfunction of the BAF complex. This in turn causes decreased binding of TOP2A to chromatin, reducing the efficiency of chromosomal decatenation. […]

CNCc1ccc(-c2cc(-c3nc(-c4ccc(S(=O)(=O)C(C)C)cc4)cnc3N)on2)cc1 [VX-970, 5-[4-(Isopropylsulfonyl)phenyl]-3-(3-{4-[(methylamino)methyl]phenyl}-1,2-oxazol-5-yl)-2-pyrazinamine]
selective targeting of Arid1a−/− ES cells in clonogenic assays [1]: selectively targeted Arid1a^−/− ES cells
frequency of chromosomal aberrations in ARID1A−/− cells [2]: significant enhancement in the frequency of chromosomal aberrations
VX-970 sensitivity caused by SMARCA4 silencing vs ARID1A siRNA (HCC1143 and HeLa cells): comparable to that caused by ARID1A siRNA
